Data reported in paper PMC8333425, “Discovery of a dual Ras and ARF6 inhibitor from a GPCR endocytosis screen” (Nature Communications, 2021).
Values joined by “and” are separate entries in the source; they are usually repeats but may differ in a detail not shown here. Equal entries are not always repeated.

Tested on: β-arrestin1 recruitment to AT1R
Experiment: BRET recruitment of β-arrestin1 to AT1R
Type: cell-based, human
Conditions: for AngII-promoted BRET, β-arrestin1 (Barr1) recruitment to AT1R: Comp 21 50 μM, individual experiments
Protocol: HEK293SL cells were seeded at a density of 7.5 × 10^5 cells per 100-mm dish and 24 h later, transiently transfected as such. For receptor internalization experiments, cells were transfected with 0.12 μg AT1R-RlucII, B2R-RlucII, or β2AR-RlucII and 0.48 μg of either rGFP-CAAX (to assess removal from the PM) or rGFP-FYVE (to assess accumulation in the endosomes). For β-arrestin recruitment assays, cells were transfected with 0.48 μg of receptor-YFP along with 0.12 μg of β-arrestin-RlucII. For β-arrestin/AP-2 binding experiments, cells were transfected with 1 μg Flag-AT1R, 1 μg β2-Adaptin-YFP, and 0.12 μg β-arrestin2-RlucII. For G protein activation, cells were transfected with 3 μg of sp-Flag-AT1R along with either 4.5 μg of the Gαq-polycistronic BRET sensor or 0.24 μg of the Gαi3-RlucII and 0.6 μg of GFP10-Gγ2 and Gβ1 sensors or 0.12 μg PKN-RBD-RlucII and 0.48 μg of rGFP-CAAX. For PKC activation, cells were transfected with 3 μg of sp-Flag-AT1R and 0.18 μg of the PKC sensor. For GTPase activation experiments, cells were transfected with 1 μg Flag-AT1R, 0.48 μg of rGFP-CAAX, and either 0.12 μg of GGA3-PBD-RlucII, PAK-CRIB-RlucII or Raf-RBD-RlucII. For biosensor validation experiments, cells were additionally transfected with 500 ng Flag-K-Ras-WT, Flag-K-Ras-G12V, Flag-K-Ras-SOS-CAAX, HA-ARF6-WT, HA-ARF6-T27N, Myc-Rac1-WT, Myc-Rac1-Q61L or Myc-Rac1-T17N. For PI3K/Akt activation experiments, cells were transfected with 0.48 μg of rGFP-CAAX and 0.12 μg of Akt (PH)-RlucII. After 18 h of transfection, the media was replaced and cells were divided for subsequent experiments. Cells were detached and seeded onto poly-L-ornithine-coated 96-well flat white bottom plates (BrandTech Scientific) at a density of 2.5 × 10^4 cells per well in media. The next day, cells were washed once with Tyrode’s buffer (140 mM NaCl, 2.7 mM KCl, 1 mM CaCl2, 12 mM NaHCO3, 5.6 mM D-glucose, 0.5 mM MgCl2, 0.37 mM NaH2PO4, 25 mM HEPES, pH 7.4) and left in Tyrode’s buffer. For kinetics of β-arrestin recruitment or β-arrestin binding to receptor and AP-2 experiments, cells were serum starved for 30 min, pretreated with 21 (50 µM) or Barbadin (100 µM) for 30 min, stimulated with 100 nM AngII or 1 µM BK and BRET signals were monitored at indicated times using a Victor X Light plate reader (PerkinElmer). Coelenterazine H (final concentration of 5 µM) was added 3–5 min prior to BRET measurements. Filter set was 460/80 nm and 535/30 nm for detecting the RlucII Renilla luciferase (donor) and YFP (acceptor) light emissions, respectively. The BRET ratio was determined by calculating the ratio of the light emitted by YFP over the light emitted by the RlucII. For G protein activation, cells were serum starved, pretreated with compounds for 30 min, stimulated with 100 nM AngII for 2 min (Gαq, Gαi3, and Rho sensors) or 5 min (PKC sensor). For the kinetics of GTPase and PI3K/Akt activation, cells were serum starved, pretreated with 21 (50 µM) or Wortmannin (200 nM) for 30 min, stimulated with ligand (100 nM AngII or 100 ng/ml EGF) and BRET signals were monitored at indicated times. For concentration-response curves, cells were serum-starved, pretreated with various concentrations of compounds for 30 min and stimulated with ligand (100 nM AngII, 1 µM BK, 10 µM Isoproterenol (Iso) or 100 ng/ml EGF) in Tyrode’s buffer for 30 min for receptor internalization, 10 min for ARF6, 2 min for Rac and Rho activation and 5 min for Ras activation and PI3K/Akt activation. BRET signals were monitored using a Synergy2 (BioTek) microplate reader and coelenterazine 400a (final concentrations of 5 µM) added 3–5 min prior to BRET measurements. Filter set was 410/80 nm and 515/30 nm for detecting the RlucII Renilla luciferase (donor) and rGFP/GFP10 (acceptor) light emissions, respectively. The BRET ratio was determined by calculating the ratio of the light emitted by rGFP/GFP10 over the light emitted by the RlucII.

## CC(C)C(=O)N1CCN(c2ccc(NC(=O)c3cc4ccccc4o3)cc2Cl)CC1 [Compound 21]
50 μM
  β-arrestin1 recruitment to AT1R at the PM: did not preclude
Time 0 min
  AngII-promoted BRET, β-arrestin1 (Barr1) recruitment to AT1R: 0
Time 5 min
  AngII-promoted BRET, β-arrestin1 (Barr1) recruitment to AT1R: 0.07621 and 0.08371 and 0.04185
Time 10 min
  AngII-promoted BRET, β-arrestin1 (Barr1) recruitment to AT1R: 0.1164 and 0.1114 and 0.05569
Time 15 min
  AngII-promoted BRET, β-arrestin1 (Barr1) recruitment to AT1R: 0.1198 and 0.1209 and 0.06044
Time 30 min
  AngII-promoted BRET, β-arrestin1 (Barr1) recruitment to AT1R: 0.1393 and 0.143 and 0.07152
Time 60 min
  AngII-promoted BRET, β-arrestin1 (Barr1) recruitment to AT1R: 0.1361 and 0.1426 and 0.1043
